Results as given in patent publication US10752588B2 (The Broad Institute, Inc., priority 2014, dated 2020).
Converted amounts (≈) assume the structure as drawn. Read-outs that look alike come from different tables or passages of the source.

Tests used:
human D2R/β-arrestin [1] = target: T1, human D2R/β-arrestin (Homo sapiens (Human), UniProt P14416); assay: Gi/cAMP agonist assay (Lance Ultra cAMP, Forskolin); type: cell-based; conditions: CHO-K1 cell line expressing human D2R/β-arrestin
In short: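 Read-out was Lance Ultra competitive TR-FRET (Eu-cAMP tracer plus ULight-anti-cAMP) following forskolin-induced cAMP production. Before forskolin stimulation, compounds were pin-transferred onto the seeded cells for 10 min at 37 °C.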

human D2R/β-arrestin [2] = target: T1, human D2R/β-arrestin; assay: β-Arrestin agonist assay (PathHunter); type: cell-based; conditions: CHO-K1 cell line expressing human D2R/β-arrestin
In short: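 Readout follows addition of Buffer:Emerald II:Galactor-Star reagent (19:5:1) to agonist-treated plates, measured as luminescence or fluorescence.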

human D2R/β-arrestin [3] = target: T1, human D2R/β-arrestin; conditions: read-out: β-arrestin Antagonist
[4] = Microsomal stability, mouse
human D2R/β-arrestin [5] = target: T1, human D2R/β-arrestin; conditions: read-out: cAMP Antagonist
Solubility in PBS = type: physicochemical; conditions: aqueous buffer
[6] = Microsomal stability, rat; type: in vitro ADME
human D2R/β-arrestin [7] = target: T1, human D2R/β-arrestin; assay: cell-based; conditions: cAMP Antagonist
[8] = Microsomal stability, human; type: in vitro ADME
human D2R/β-arrestin [9] = target: T1, human D2R/β-arrestin; assay: cell-based; conditions: β-arrestin Antagonist
[10] = CHO-K1 cell line expressing human D2R/β-arrestin, quinpirole used as agonist

T1 sequence (P14416 whole entry): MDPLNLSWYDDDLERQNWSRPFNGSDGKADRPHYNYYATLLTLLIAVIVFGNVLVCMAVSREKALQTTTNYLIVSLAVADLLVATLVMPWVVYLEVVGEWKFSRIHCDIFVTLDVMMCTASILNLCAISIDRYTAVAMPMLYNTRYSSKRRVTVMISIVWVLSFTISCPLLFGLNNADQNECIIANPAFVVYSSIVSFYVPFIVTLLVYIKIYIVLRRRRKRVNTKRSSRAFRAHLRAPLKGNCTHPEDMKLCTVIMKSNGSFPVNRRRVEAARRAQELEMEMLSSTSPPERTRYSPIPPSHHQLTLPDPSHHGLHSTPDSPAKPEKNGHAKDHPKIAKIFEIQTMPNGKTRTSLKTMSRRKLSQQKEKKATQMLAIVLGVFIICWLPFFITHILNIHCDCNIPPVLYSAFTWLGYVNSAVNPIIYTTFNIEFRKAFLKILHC

O=C(NC(c1ccc(Cl)cc1)c1ccccn1)C1CCN(CCOc2ccccc2C(F)(F)F)CC1 (single isomer, unassigned) [Compound 6a]
EC50 (human D2R/β-arrestin [1]): > 30 µM
EC50 (human D2R/β-arrestin [2]): > 30 µM
IC50 (human D2R/β-arrestin [3]): < 0.1 µM
Microsomal Stability: % remaining after 60 minutes [4]: m31%
IC50 (human D2R/β-arrestin [5]): < 0.1 µM

O=C(NC(c1ccc(Cl)cc1)c1ccccn1)C1CCN(CCOc2ccccc2C(F)(F)F)CC1 (single isomer, unassigned) [Compound 6b]
EC50 (human D2R/β-arrestin [1]): > 30 µM
EC50 (human D2R/β-arrestin [2]): > 30 µM
IC50 (human D2R/β-arrestin [3]): < 0.1 µM
Microsomal Stability: % remaining after 60 minutes [4]: m2%
IC50 (human D2R/β-arrestin [5]): < 0.1 µM

COc1cccc(C(NC(=O)C2CCN(CCOc3ccccc3F)CC2)c2ccccn2)c1 (single isomer, unassigned) [Compound 22b, 1-(2-(2-fluorophenoxy)ethyl)-N-((3-methoxyphenyl)(pyridin-2-yl)methyl) piperidine-4-carboxamide]
EC50 (human D2R/β-arrestin [1]): > 30 µM
EC50 (human D2R/β-arrestin [2]): > 30 µM
IC50 (human D2R/β-arrestin [3]): 0.1 to 1 µM
Microsomal Stability: % remaining after 60 minutes [4]: m12%
IC50 (human D2R/β-arrestin [5]): 0.1 to 1 µM

CC1(C(=O)NC(c2ccc(F)cc2)c2ccccn2)CCN(CCOc2ccccc2C(F)(F)F)CC1 (single isomer, unassigned) [Compound 70b, N-((4-fluorophenyl)(pyridin-2-yl)methyl)-4-methyl-1-(2-(2-(trifluoromethyl)phenoxy)ethyl) piperidine-4-carboxamide]
EC50 (human D2R/β-arrestin [1]): < 0.1 µM
EC50 (human D2R/β-arrestin [2]): > 30 µM
IC50 (human D2R/β-arrestin [3]): 1 to 10 µM
Microsomal Stability: % remaining after 60 minutes [4]: m0%
IC50 (human D2R/β-arrestin [5]): > 30 µM

Fc1ccc(C(NCC2CCN(CCOc3ccccc3)CC2)c2ccccn2)cc1 (single isomer, unassigned) [Compound 78b, 1-(4-fluorophenyl)-N-((1-(2-phenoxyethyl)piperidin-4-yl)methyl)-1-(pyridin-2-yl)methanamine]
EC50 (human D2R/β-arrestin [1]): > 30 µM
EC50 (human D2R/β-arrestin [2]): > 30 µM
IC50 (human D2R/β-arrestin [3]; [10]): 1 to 10 µM
IC50 (human D2R/β-arrestin [5]; [10]): 1 to 10 µM

O=C(NC(c1ccc2c(c1)OCO2)c1ccccn1)C1CCN(CCOc2ccccc2F)CC1 (single isomer, unassigned) [Compound 95a, N-(benzo[d][1,3]dioxol-5-yl(pyridin-2-yl)methyl)-1-(2-(2-fluorophenoxy)ethyl) piperidine-4-carboxamide]
EC50 (human D2R/β-arrestin [1]): > 30 µM
EC50 (human D2R/β-arrestin [2]): > 30 µM
IC50 (human D2R/β-arrestin [3]): 0.1 to 1 µM
IC50 (human D2R/β-arrestin [5]): 0.1 to 1 µM

O=C(NC(c1ccc2c(c1)OCO2)c1ccccn1)C1CCN(CCOc2ccccc2F)CC1 (single isomer, unassigned) [Compound 95b, N-(benzo[d][1,3]dioxol-5-yl(pyridin-2-yl)methyl)-1-(2-(2-fluorophenoxy)ethyl) piperidine-4-carboxamide]
EC50 (human D2R/β-arrestin [1]): 1 to 10 µM
EC50 (human D2R/β-arrestin [2]): > 30 µM
IC50 (human D2R/β-arrestin [3]): 0.1 to 1 µM
Microsomal Stability: % remaining after 60 minutes [4]: m12%
IC50 (human D2R/β-arrestin [5]): 0.1 to 1 µM

O=C(NC(c1ccc(Cl)cc1)c1ccccc1F)C1CCN(CCOc2ccccc2F)CC1 (single isomer, unassigned) [Compound 96a, N-((4-chlorophenyl)(2-fluorophenyl)methyl)-1-(2-(2-fluorophenoxy)ethyl) piperidine-4-carboxamide]
EC50 (human D2R/β-arrestin [1]): 1 to 10 µM
EC50 (human D2R/β-arrestin [2]): > 30 µM
IC50 (human D2R/β-arrestin [3]): 1 to 10 µM
IC50 (human D2R/β-arrestin [5]): > 30 µM

O=C(NC(c1ccc(Cl)cc1)c1ccccc1F)C1CCN(CCOc2ccccc2F)CC1 (single isomer, unassigned) [Compound 96b, N-((4-chlorophenyl)(2-fluorophenyl)methyl)-1-(2-(2-fluorophenoxy)ethyl) piperidine-4-carboxamide]
EC50 (human D2R/β-arrestin [1]): > 30 µM
EC50 (human D2R/β-arrestin [2]): > 30 µM
IC50 (human D2R/β-arrestin [3]): 0.1 to 1 µM
IC50 (human D2R/β-arrestin [5]): 0.1 to 1 µM

c1ccc(OCCN2CCC(CNC(c3ccc4c(c3)OCO4)c3ccccn3)CC2)cc1 (single isomer, unassigned) [Compound 102b, 1-(benzo[d][1,3]dioxol-5-yl)-N-((1-(2-phenoxyethyl)piperidin-4-yl)methyl)-1-(pyridin-2-yl)methanamine]
EC50 (human D2R/β-arrestin [1]): 1 to 10 µM
EC50 (human D2R/β-arrestin [2]): > 30 µM
IC50 (human D2R/β-arrestin [3]; [10]): 1 to 10 µM
IC50 (human D2R/β-arrestin [5]; [10]): 1 to 10 µM

O=C(NC(c1cccc(OC(F)(F)F)c1)c1ccccn1)C1CCN(CCOc2ccccc2)CC1 (single isomer, unassigned) [Compound 118a, 1-(2-phenoxyethyl)-N-(pyridin-2-yl(3-(trifluoromethoxy)phenyl)methyl) piperidine-4-carboxamide]
EC50 (human D2R/β-arrestin [1]): 10 to 30 µM
EC50 (human D2R/β-arrestin [2]): > 30 µM
IC50 (human D2R/β-arrestin [3]): 10 to 30 µM
IC50 (human D2R/β-arrestin [5]): > 30 µM

O=C(NC(c1cccc(OC(F)(F)F)c1)c1ccccn1)C1CCN(CCOc2ccccc2)CC1 (single isomer, unassigned) [Compound 118b, 1-(2-phenoxyethyl)-N-(pyridin-2-yl(3-(trifluoromethoxy)phenyl)methyl) piperidine-4-carboxamide]
EC50 (human D2R/β-arrestin [1]): 1 to 10 µM
EC50 (human D2R/β-arrestin [2]): > 30 µM
IC50 (human D2R/β-arrestin [3]): 1 to 10 µM
Microsomal Stability: % remaining after 60 minutes [4]: m35%
IC50 (human D2R/β-arrestin [5]): > 30 µM

O=C(NC(c1ccc2c(c1)OC(F)(F)O2)c1ccccn1)C1CCN(CCOc2ccccc2)CC1 (single isomer, unassigned) [Compound 119a]
EC50 (human D2R/β-arrestin [1]): > 30 µM
EC50 (human D2R/β-arrestin [2]): > 30 µM
IC50 (human D2R/β-arrestin [3]): 1 to 10 µM
IC50 (human D2R/β-arrestin [5]): 1 to 10 µM

O=C(NC(c1ccc(Cl)cc1)c1ccccn1)C1CCN(CCOc2cccnc2)CC1 (stereo not shown) [Compound 10]
solubility (Solubility in PBS): > 500 µM
EC50 (human D2R/β-arrestin [1]): 0.1 to 1 µM
EC50 (human D2R/β-arrestin [2]): > 30 µM
Microsomal Stability: % remaining after 60 minutes [6]: 57%
IC50 (human D2R/β-arrestin [7]; [10]): > 30 µM
Microsomal Stability: % remaining after 60 minutes [4]: 44%
Microsomal Stability: % remaining after 60 minutes [8]: 75%
IC50 (human D2R/β-arrestin [9]; [10]): 10 to 30 µM

O=C(NC(c1cccc(F)c1)c1ccccn1)C1CCN(CCOc2ccccc2)CC1 (stereo not shown) [Compound 27]
EC50 (human D2R/β-arrestin [1]): 0.1 to 1 µM
EC50 (human D2R/β-arrestin [2]): > 30 µM
IC50 (human D2R/β-arrestin [3]): 1 to 10 µM
IC50 (human D2R/β-arrestin [5]): > 30 µM

COc1cccc(C(NC(=O)C2CCN(CCOc3ccccc3)CC2)c2ccccn2)c1 (stereo not shown) [Compound 35a]
EC50 (human D2R/β-arrestin [1]): 10 to 30 µM
EC50 (human D2R/β-arrestin [2]): > 30 µM
IC50 (human D2R/β-arrestin [3]): 10 to 30 µM
IC50 (human D2R/β-arrestin [5]): 10 to 30 µM

COc1cccc(C(NCC2CCN(CCOc3ccccc3F)CC2)c2ccccn2)c1 (stereo not shown) [Compound 88, N-((1-(2-(2-fluorophenoxy)ethyl)piperidin-4-yl)methyl)-1-(3-methoxyphenyl)-1-(pyridin-2-yl)methanamine]
solubility (Solubility in PBS): 461 µM (≈ 207 µg/mL)
EC50 (human D2R/β-arrestin [1]): < 0.1 µM
EC50 (human D2R/β-arrestin [2]): > 30 µM
IC50 (human D2R/β-arrestin [7]; [10]): 0.1 to 1 µM
Microsomal Stability: % remaining after 60 minutes [4]: m1%
IC50 (human D2R/β-arrestin [9]; [10]): 0.1 to 1 µM

CC(C)N(CC1CCN(CCOc2ccccc2)CC1)C(c1ccc(Cl)cc1)c1ccccn1 (stereo not shown) [Compound 103, N-((4-chlorophenyl)(pyridin-2-yl)methyl)-N-((1-(2-phenoxyethyl)piperidin-4-yl)methyl)propan-2-amine]
EC50 (human D2R/β-arrestin [1]): < 0.1 µM
EC50 (human D2R/β-arrestin [2]): > 30 µM
IC50 (human D2R/β-arrestin [7]): > 30 µM
Microsomal Stability: % remaining after 60 minutes [4]: m1%
Plasma Stability: % remaining after 5 hours (Plasma stability, mouse): m97%
IC50 (human D2R/β-arrestin [9]): < 0.1 µM

COc1ccccc1OCCN1CCC(C(=O)NC(c2ccc(Cl)cc2)c2ccccn2)CC1 (stereo not shown) [Compound 109, N-((4-chlorophenyl) (pyridin-2-yl)methyl)-1-(2-(2-methoxyphenoxy)ethyl)piperidine-4-carboxamide]
solubility (Solubility in PBS): > 500 µM
EC50 (human D2R/β-arrestin [1]): > 30 µM
EC50 (human D2R/β-arrestin [2]): > 30 µM
Microsomal Stability: % remaining after 60 minutes [6]: 57%
IC50 (human D2R/β-arrestin [7]; [10]): < 0.1 µM
Microsomal Stability: % remaining after 60 minutes [4]: 40%
Microsomal Stability: % remaining after 60 minutes [8]: 59%
IC50 (human D2R/β-arrestin [9]; [10]): < 0.1 µM
